# Assay results from patent publication US7872003B2, “Pharmaceutical compounds” (F. Hoffmann-La Roche AG, priority 2005, dated 2011).
# Test system: Caco-2 cells
# Assay: Caco-2 permeability
# Type: in vitro ADME
# Conditions: bidirectional Caco-2 assay; values >/=1.0 indicate active cellular efflux
# Description: (iii) Caco-2 Permeability
# Caco-2 cells were seeded onto Millipore Multiscreen plates at 1×10^5 cells/cm^2, and were cultured for 20 days. Assessment of compound permeability was subsequently conducted. The compounds were applied to the apical surface (A) of cell monolayers and compound permeation into the basolateral (B) compartment was measured. This was performed in the reverse direction (B−A) to investigate active transport. A permeability coefficient value, Papp, for each compound, a measure of the rate of permeation of the compound across the membrane, was calculated. Compounds were grouped into low (Papp</=[…]) or high (Papp>/=[…]) absorption potential based on comparison with control compounds with established human absorption.
# For assessment of a compound's ability to undergo active efflux, the ratio of basolateral (B) to apical (A) transport compared with A to B was determined. Values of B−A/A−B>/=1.0 indicated the occurrence of active cellular efflux. All of the compounds tested through the Caco-2 permeability screen had Papp values>/=1.0×10^6 cm/s.
smiles,measurement,value
CN1CCN(Cc2cc3nc(-c4cccc(O)c4)nc(N4CCOCC4)c3s2)CC1 [PI540],B−A/A−B asymmetry index,less than 1.0
